Reference: publication PMC4458427 (Journal of controlled release : official journal of the …, 2015)
Like-named read-outs stand apart in the source and are kept apart here. Where a SMILES comes first, the peptide text is derived from it.

Key:
[1] = mouse, in vivo, 1 mg/kg
[2] = system: NCI/ADR-RES (multi-drug resistant ovarian adenocarcinoma) cells; assay: cells; type: cell-based; settings: 72 h
[3] = system: A549 (lung carcinoma) cells; assay: MTT cytotoxicity, A549; type: cell-based; settings: Homo sapiens, A549, 72 h
[4] = mouse; cited from earlier work
[5] = human; cited from earlier work

Q: Which “tolerability at maximum soluble concentration” value [1] does the source give for `CC(=O)O[C@H]1C(=O)[C@@]2(C)[C@H]([C@H](OC(=O)c3ccccc3)[C@]3(O)C[C@H](OC(=O)[C@H](O)[C@@H](NC(=O)c4ccccc4)c4ccccc4)C(C)=C1C3(C)C)[C@]1(OC(C)=O)CO[C@@H]1C[C@@H]2O` [PTX, Paclitaxel] here?
A: well tolerated

Q: And the IC50 ([2]; Homo sapiens, NCI/ADR-RES)?
A: 9.7 µM

Q: And the “decrease in activity compared to the peptide conjugate” value ([2]; NCI/ADR-RES, MTT)?
A: ~2 fold

Q: What about the IC50 [3] of the same molecule?
A: 0.0036 µM

Q: Which IC50 [2] does the source give for `CC(C)[C@H](NC(=O)[C@H](CCCCN)NC(=O)[C@@H](NC(=O)[C@H](CCCCN)NC(=O)[C@@H](NC(=O)[C@H](CCCCN)NC(=O)[C@@H](NC(=O)[C@@H]1CCCN1C(=O)[C@H]1CCCN1C(=O)[C@@H](NC(=O)[C@H](CCCCN)NC(=O)[C@@H](NC(=O)[C@H](CCCCN)NC(=O)[C@@H](NC(=O)[C@H](CCCCN)NC(=O)[C@@H](NC(=O)[C@@H](N)CCCCN)C(C)C)C(C)C)C(C)C)C(C)C)[C@@H](C)O)C(C)C)C(C)C)C(=O)N[C@@H](CCCCN)C(N)=O` [SVS-1] (HELM PEPTIDE1{K.V.K.V.K.V.K.V.[dP].P.T.K.V.K.V.K.V.K.[am]}$$$$V2.0) here?
A: 3.21 µM

Q: With KKVVFKVKFKK-NH2 [KSLK] as the molecule, how does the reported half-life [4] read?
A: 6 min

Q: For YGRKKRRQRRR-NH2 [TAT], which reported half-life [5] is on record?
A: 3.5 min
